System: Daudi human Burkitt’s Lymphoma cell line
Experiment: Study 7: Daudi xenograft human Burkitt's lymphoma subcutaneous tumor model (daratumumab or AB79)
Type: in vivo, CB17 SCID mice
Protocol: Low tumor volumes can cause problems with the data analysis, so all measurements below 25 cubic mm (including 0 values) were excluded from the analysis. After this exclusion step, the tumor volume was assumed to follow an exponential growth model. More specifically, for a given animal and treatment group,
Pairwise comparisons were performed, where the mean growth rates were compared for various pairs of treatment conditions. The results were summarized using the growth rate inhibition (GRI). Suppose µT and µC are the mean tumor growth rates for the treatment and reference groups, respectively. Define
Here, µAB, µA, µB, and µControl are the mean growth rates for the combination, drug A, drug B, and control groups, respectively. As before, µv is the mean tumor growth rate for the vehicle group, which in most cases is the same as the control group. The standard error of the synergy score was calculated as the square root of the sum of squared standard errors across the four groups. The degrees of freedom were estimated using the Welch-Satterthwaite equation. A hypothesis test was performed to determine if the synergy score differed from 0. P-values were calculated by dividing the synergy score by its standard error and tested against a t-distribution (two-tailed) with the above-calculated degrees of freedom. A P value of less than 0.05 is statistically significant.
The combination results can be interpreted as follows. Statistically significant negative synergy scores indicate a synergistic combination (“Syn.”). Statistically significant positive synergy scores indicate a sub-additive combination (“Sub-add.”) when the combination performs better (i.e. has a lower growth rate) than the best performing single agent. Statistically significant positive synergy scores indicate an antagonistic combination (“Antag.”) when the combination performs worse than the best performing single agent. Scores that are not statistically significant should be considered additive (“Add.”).
Daudi is a human Burkitt’s Lymphoma cell line. A Daudi human xenograft tumor model was generated by subcutaneous inoculation with 2.0 × 10^6 Daudi cells (cell suspension) in 7 weeks old female CB17 SCID mice (Charles River Laboratories, 251 Ballardvale St., Wilmington, MA) in the flank. When the mean tumor volume reached approximately 110 mm3, the animals were randomized into one vehicle control and six treatment groups (n=8/group). Mice were then dosed with 20% HPβCD or Compound I-263a and/or daratumumab or AB79 over a 21-day period. Tumor growth and body weight were measured twice per week during the treatment and post-treatment periods, and mice were humanely euthanized once they had reached their humane endpoint.
A 0.75 mg/mL stock solution of I-263a was formulated weekly in 20% HPβCD and administered intravenously (IV) based on an average body weight using a 0.2 mL dosing volume. Final doses of I-263a received were 7.5 mg/kg. I-263a was administered on a BIW schedule for 3 weeks (Days 1, 4, 8, 11, 15, and 18). Daratumumab (anti-CD38 antibody) (Myoderm Medical Supplies, 48 E Main St., Norristown, PA 19401) was purchased at the beginning of the study and stored at 4° C. according to manufacturer’s instructions. Final dose of daratumumab received was 7.5 mg/kg based on average body weight. Daratumumab was administered intraperitoneally (IP) using a 0.1 mL dosing volume, on a BIW schedule for 3 weeks (Days, 1, 4, 8, 11, 15, and 18). AB79 was formulated on the day of dosing in 0.9% saline and administered intraperitoneally (IP) using a 0.1 mL dosing volume, on a BIW schedule for 3 weeks (Days, 1, 4, 8, 11, 15, and 18). Final dose of AB79 was 7.5 mg/kg based on average body weight.
Tumors were measured twice weekly using Vernier calipers. Tumor volumes were calculated using standard equation: V = W2 × L/2, where V = volume, W = width, and L = length for the tumor. […]

AB79: human monoclonal antibody that binds specifically to the CD38 transmembrane glycoprotein
Tumor Volume on Day 22 (±SEM) (AB79 7.5 mg/kg BIW IP): 1033.8 (±208.8)
GRI% (AB79 7.5 mg/kg BIW IP, vs vehicle): 29%
Tumor growth relative to vehicle-treated tumors (pairwise comparison) (each agent 7.5 mg/kg BIW, I-263a p = 0.105, daratumumab p < 0.001, AB79 p = 0.002, both combinations p < 0.001, data up to Day 22): tumor growth inhibition
